Data from US8192962B2, “Processes for detecting toxic substances” (Daikin Industries, Ltd., priority 2001, dated 2012).

System: Unknown protein yeast genes
Assay: DNA chip mRNA expression in yeast, unknown protein yeast genes (Table 1)
Type: cell-based, Saccharomyces cerevisiae S288C
Outline: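 Values are treated/untreated fluorescence ratios from a whole-genome yeast DNA chip hybridized over 12 hours at 65° C with Cy3- or Cy5-labelled cDNA from poly(A) mRNA. Log-phase S288C yeast in YPD at 25° C had received a single toxic chemical for two hours, dosed to slow growth without killing.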

Measured: The level of expressed mRNA in the presence of chemical substance/The level of expressed mRNA in the absence of chemical substance

manganese ethylenebis(dithiocarbamate) [(8)]
1.4: yeast gene YER079W, incubated two hours with chemical substance | yeast gene YER163C, incubated two hours with chemical substance | yeast gene YHR138C, incubated two hours with chemical substance | yeast gene YJL161W, incubated two hours with chemical substance
1.6: yeast gene YJR054W, incubated two hours with chemical substance
1.2: yeast gene YBL048W | yeast gene YEL001C, incubated two hours with chemical substance | yeast gene YER035W, incubated two hours with chemical substance | yeast gene YER106W, incubated two hours with chemical substance | yeast gene YGL037C, incubated two hours with chemical substance | yeast gene YGL053W, incubated two hours with chemical substance
1.5: yeast gene YGR110W | yeast gene YJL057C, incubated two hours with chemical substance
1.1: yeast gene YDL204W, incubated two hours with chemical substance | yeast gene YDR330W, incubated two hours with chemical substance | yeast gene YER004W, incubated two hours with chemical substance | yeast gene YER175C, incubated two hours with chemical substance | yeast gene YGL047W, incubated two hours with chemical substance | yeast gene YGR221C, incubated two hours with chemical substance | yeast gene YIL087C, incubated two hours with chemical substance | yeast gene YJR008W, incubated two hours with chemical substance | yeast gene YKL086W, incubated two hours with chemical substance
1.7: yeast gene YDR511W, incubated two hours with chemical substance | yeast gene YGR154C, incubated two hours with chemical substance
0.8: yeast gene YAL053W, incubated two hours with chemical substance | yeast gene YDL072C, incubated two hours with chemical substance | yeast gene YGR101W, incubated two hours with chemical substance | yeast gene YJL066C, incubated two hours with chemical substance | yeast gene YJL151C, incubated two hours with chemical substance
0.6: yeast gene YDR545W, incubated two hours with chemical substance
1.9: yeast gene YBL107C
24.7: yeast gene YKL071W
0.4: yeast gene YFL032W, incubated two hours with chemical substance
0.9: yeast gene YDR411C, incubated two hours with chemical substance | yeast gene YER158C, incubated two hours with chemical substance | yeast gene YFL024C | yeast gene YGR130C, incubated two hours with chemical substance | yeast gene YIL041W, incubated two hours with chemical substance | yeast gene YJL082W, incubated two hours with chemical substance | yeast gene YJL171C, incubated two hours with chemical substance
0.7: yeast gene YDL222C, incubated two hours with chemical substance | yeast gene YGL199C, incubated two hours with chemical substance | yeast gene YIL023C, incubated two hours with chemical substance | yeast gene YJL152W, incubated two hours with chemical substance | yeast gene YKL153W, incubated two hours with chemical substance
3.0: yeast gene YGL121C
1.0: yeast gene YFL006W, incubated two hours with chemical substance | yeast gene YFL010C, incubated two hours with chemical substance | yeast gene YHR199C, incubated two hours with chemical substance | yeast gene YKL151C, incubated two hours with chemical substance
